Data taken from paper PMC7216583 (Parasites & Vectors, 2020).
pIC50, pKi: −log10 of the molar value. Structures can show the parent of a compound that is named as a salt. Where two headings read alike, the source gives them in different places.

How the values were obtained:
HDAC [1] = system: HDAC; parameters: method as in S-inhibitor; conditions: ref S-inhibitor; cited from earlier work
[2] = system: Toxoplasma gondii RH-2F tachyzoites; assay: microbe, parasite or virus in culture; conditions: 72 h
PDGFRβ = system: PDGFRβ; parameters: method as in library vendor description; conditions: ref library vendor description; cited from earlier work
in vitro = conditions: human; for viability at 72 h: Host viability (%) mean
Aurora B = system: Aurora B; parameters: method as in S-inhibitor catalog; conditions: vendor brief description; ref S-inhibitor catalog; cited from earlier work
Aurora C [3] = system: Aurora C; parameters: method as in S-inhibitor catalog; conditions: vendor brief description; ref S-inhibitor catalog; cited from earlier work
CYP17 = system: CYP17; parameters: method as in S-inhibitor catalog; conditions: vendor brief description; ref S-inhibitor catalog; cited from earlier work
VEGFR3 = system: VEGFR3; parameters: method as in library vendor description; conditions: ref library vendor description; cited from earlier work
c-Kit [4] = system: c-Kit; parameters: method as in S-inhibitor catalog; conditions: vendor brief description; ref S-inhibitor catalog; cited from earlier work
Flt1 = system: Flt1; parameters: method as in library vendor description; conditions: ref library vendor description; cited from earlier work
c-Kit [5] = system: c-Kit; parameters: method as in library vendor description; conditions: ref library vendor description; cited from earlier work
PI3Kδ = system: PI3Kδ; parameters: method as in library vendor description; conditions: ref library vendor description; cited from earlier work
HIV protease = biological target: HIV protease; parameters: method as in S-inhibitor; conditions: ref S-inhibitor; cited from earlier work
mTOR = system: mTOR; parameters: method as in S-inhibitor; conditions: ref S-inhibitor; cited from earlier work
p110β = system: p110β; parameters: method as in S-inhibitor; conditions: ref S-inhibitor; cited from earlier work
p110γ = system: p110γ; parameters: method as in S-inhibitor; conditions: ref S-inhibitor; cited from earlier work
Syk = system: Syk; parameters: method as in S-inhibitor; conditions: ref S-inhibitor; cited from earlier work
HDAC [6] = system: HDAC; parameters: method as in S-inhibitor catalog; conditions: vendor brief description; ref S-inhibitor catalog; cited from earlier work
VEGFR2 [7] = system: VEGFR2; parameters: method as in library vendor description; conditions: ref library vendor description; cited from earlier work
Flt4 = system: Flt4; parameters: method as in library vendor description; conditions: ref library vendor description; cited from earlier work
Aurora C [8] = system: Aurora C; parameters: method as in library vendor description; conditions: ref library vendor description; cited from earlier work
VEGFR2 [9] = system: VEGFR2; parameters: method as in S-inhibitor; conditions: ref S-inhibitor; cited from earlier work
c-Met = system: c-Met; parameters: method as in S-inhibitor; conditions: ref S-inhibitor; cited from earlier work
Aurora A = system: Aurora A; parameters: method as in S-inhibitor; conditions: ref S-inhibitor; cited from earlier work
Abl = system: Abl; parameters: method as in S-inhibitor; conditions: ref S-inhibitor; read-out: IC50, Abl; cited from earlier work
Ret = system: Ret; parameters: method as in library vendor description; conditions: ref library vendor description; cited from earlier work
S6K1 = system: S6K1; parameters: method as in S-inhibitor; conditions: ref S-inhibitor; cited from earlier work
CDK7 = system: CDK7; parameters: method as in S-inhibitor; conditions: ref S-inhibitor; cited from earlier work
HDAC8 = system: HDAC8; parameters: method as in S-inhibitor; conditions: ref S-inhibitor; cited from earlier work
CCR5 = conditions: ref S-inhibitor, cited from earlier work
PDGFR = conditions: read-out: IC50 PDGFR; ref library vendor description; cited from earlier work
VEGFR1 = system: VEGFR1; parameters: method as in library vendor description; conditions: ref library vendor description; cited from earlier work
EGFR = system: EGFR; parameters: method as in library vendor description; conditions: ref library vendor description; cited from earlier work
FGFR1 = system: FGFR1; parameters: method as in library vendor description; conditions: ref library vendor description; cited from earlier work
VEGFR2 [10] = system: VEGFR2; parameters: method as in S-inhibitor catalog; conditions: vendor brief description; ref S-inhibitor catalog; cited from earlier work
[11] = system: Toxoplasma gondii RH-2F tachyzoites; conditions: 5 μM, 72 h
OX1 = biological target: OX1; parameters: method as in S-inhibitor; conditions: ref S-inhibitor, cited from earlier work
[12] = read-out: Parasite inhibition (%) mean, preliminary screen, mean
[13] = read-out: Parasite inhibition (%) mean, preliminary screen of compound library, mean

Compound: CCCCc1nc2cc(/C=C/C(=O)NO)ccc2n1CCN(CC)CC [SB939 (Pracinostat)]
- pIC50 (HDAC [1]): 6.85 to 7.40
- inhibition of growth at 5 µM [2, 12]: 34.6%

Compound: Cc1ccc(NC(=O)c2ccc(CN3CCN(C)CC3)cc2)cc1Nc1nc(-c2cccnc2)cs1 [Masitinib (AB1010)]
- inhibition of growth at 5 µM [2, 12]: 10.5%

Compound: Cc1cc(CN2CCN(c3c(Br)cnc4[nH]c(-c5ccc(N6CCN(C)CC6)cc5)nc34)CC2)no1 [CCT137690]
- viability at 72 h (in vitro): 78.6%
- pIC50 (Aurora B): 7.60
- pIC50 (Aurora C [3]): 7.72
- inhibition of growth at 5 µM [2, 13]: 86.1%

Compound: CC(=O)O[C@H]1CC[C@@]2(C)C(=CC[C@H]3[C@H]2CC[C@]2(C)C(c4cccnc4)=CC[C@@H]32)C1 [Abiraterone Acetate (CB7630)]
- pIC50 (CYP17): 7.14
- inhibition of growth at 5 µM [2, 13]: 0.7%

Compound: Cn1cc(/C=C/C(=O)c2cccc(F)c2)cc1/C=C/C(=O)NO [MC1568]
- pIC50 (HDAC [1]): 6.66
- inhibition of growth at 5 µM [2, 12]: 35.4%

Compound: CN1CCN(c2ccc3nc(-c4c(N)c5c(F)cccc5[nH]c4=O)[nH]c3c2)CC1 [Dovitinib (TKI-258)]
- pIC50 (PDGFRβ): 7.57
- inhibition of growth at 5 µM ([2]; read-out: Parasite inhibition (%) mean): -12.9%

Compound: CN1CCN(c2ccc3nc(-c4c(N)c5c(F)cccc5[nH]c4=O)[nH]c3c2)CC1
- pIC50 (c-Kit [4]): 8.70

Compound: Clc1ccc(Nc2nnc(Cc3ccncc3)c3ccccc23)cc1 [Vatalanib 2HCl (PTK787)]
- pIC50 (c-Kit [5]): 6.14
- inhibition of growth at 5 µM [2, 12]: -6.6%

Compound: Cc1ccccc1-n1c(Cn2cnc3c(N)ncnc32)nc2cccc(C)c2c1=O [IC-87114]
- inhibition of growth at 5 µM [2, 12]: 11.1%

Compound: COC(=O)N[C@H](C(=O)N[C@@H](Cc1ccccc1)[C@@H](O)CN(Cc1ccc(-c2ccccn2)cc1)NC(=O)[C@@H](NC(=O)OC)C(C)(C)C)C(C)(C)C [Atazanavir sulfate]
- viability (in vitro): 90.7%
- pKi (HIV protease): 8.58
- inhibition of growth at 5 µM [2, 12]: 93.6%

Compound: COc1cc(Nc2nc3ccccc3nc2NS(=O)(=O)c2ccc(NC(=O)c3ccc(C)c(OC)c3)cc2)cc(OC)c1 [XL765 (SAR245409)]
- pIC50 (mTOR): 6.80
- pIC50 (p110β): 6.95
- pIC50 (p110γ): 8.05
- inhibition of growth at 5 µM [2, 12]: 46.6%

Compound: CC(C)[C@H](C(=O)Nc1ccc(C(=O)NO)cc1)c1ccccc1 [AR-42 (HDAC-42)]
- pIC50 (HDAC [6]): 7.52
- inhibition of growth at 5 µM [2, 13]: 61%

Compound: COc1cc2c(Oc3ccc4[nH]c(C)cc4c3F)ncnc2cc1OCCCN1CCCC1 [Cediranib (AZD2171)]
- pIC50 (VEGFR2 [7]): 9.30
- pIC50 (Flt1): 8.30
- pIC50 (Flt4): ≥ 8.52
- inhibition of growth at 5 µM [2, 12]: 0.4%

Compound: O=C(Nc1cccc(Cl)c1)Nc1ncc(CCNc2ncnc3ccsc23)s1 [SNS-314 Mesylate]
- viability at 72 h (in vitro): 32.9%
- pIC50 (Aurora C [8]): 8.47
- inhibition of growth at 5 µM [2, 12]: 79.4%

Compound: COc1cc(Nc2ncc(F)c(Nc3ccc4c(n3)NC(=O)C(C)(C)O4)n2)cc(OC)c1OC [R406 (free base)]
- pIC50 (Syk): 7.39

Compound: Nc1nccc(Oc2ccc(NC(=O)c3c[nH]cc(-c4ccc(F)cc4)c3=O)cc2F)c1Cl [BMS 794833]
- viability at 72 h (in vitro): 70.6%
- pIC50 (VEGFR2 [9]): 7.82
- pIC50 (c-Met): 8.77
- inhibition of growth at 5 µM [2, 12]: 88.4%

Compound: Cc1cccc(C)c1OCC(=O)N[C@@H](Cc1ccccc1)[C@@H](O)C[C@H](Cc1ccccc1)NC(=O)[C@H](C(C)C)N1CCCNC1=O [Lopinavir (ABT-378)]
- pKi (HIV protease): 11.89
- inhibition of growth at 5 µM [2, 12]: 0.9%

Compound: O=C(c1ccc(/C=C/c2n[nH]c3ccccc23)cc1)N1CCNCC1 [KW 2449]
- viability at 72 h (in vitro): 55.6%
- pIC50 (Aurora A): 7.32
- pIC50 (Abl): 7.85
- inhibition of growth at 5 µM [2, 12]: 70.2%

Compound: CCN(CC)Cc1ccc2cc(COC(=O)Nc3ccc(C(=O)NO)cc3)ccc2c1 [ITF2357 (Givinostat)]
- pIC50 (HDAC [1]): 7.80 to 8.12
- inhibition of growth at 5 µM [2, 12]: 62.2%

Compound: CO[C@@H](C(=O)N1Cc2n[nH]c(NC(=O)c3ccc(N4CCN(C)CC4)cc3)c2C1)c1ccccc1 [Danusertib (PHA-739358)]
- viability at 72 h (in vitro): 78.8%
- pIC50 (Ret): 7.51
- pIC50 (Aurora C [8]): 7.21
- inhibition of growth at 5 µM [2, 12]: 77.5%

Compound: CCc1cncnc1N1CCN(Cc2nc3cc(C(F)(F)F)ccc3[nH]2)CC1 [PF-4708671]
- pIC50 (S6K1): 6.80
- pKi (S6K1): 7.70
- inhibition of growth at 5 µM [2, 12]: 60.6%

Compound: Cc1csc(-c2nnc(Nc3ccc(Oc4ncccc4-c4ccnc(N)n4)cc3)c3ccccc23)c1 [AMG 900]
- viability at 72 h (in vitro): 33.6%
- pIC50 (Aurora B): 8.40
- pIC50 (Aurora C [3]): 9.00
- inhibition of growth at 5 µM [2, 13]: 85.9%

Compound: CCN1CCN(C(=O)Cc2ccc(Nc3ncc(F)c(Nc4ccc(C(=O)Nc5ccccc5Cl)cc4)n3)cc2)CC1 [Aurora A Inhibitor I]
- pIC50 (Aurora A): 8.47
- inhibition of growth at 5 µM [2, 12]: 60.8%

Compound: CC(C)c1cnn2c(NCc3ccccc3)cc(NCCCCCCN)nc12 [BS-181 HCl]
- pIC50 (CDK7): 7.68
- inhibition of growth at 5 µM [2, 12]: 5.7%

Compound: COc1ccc(Cn2ccc3ccc(C(=O)NO)cc32)cc1 [PCI-34051]
- pIC50 (HDAC8): 8.00
- inhibition of growth at 5 µM [2, 12]: 5.7%

Compound: Maraviroc
- pIC50 (CCR5; read-out: IC50, CCR5, MIP-1α, MIP-1α): 8.48
- pIC50 (CCR5; read-out: IC50, CCR5, MIP-1β, MIP-1β): 8.14
- pIC50 (CCR5; read-out: IC50, CCR5, RANTES, RANTES): 8.28

Compound: CCN(CC)CCNC(=O)c1c(C)[nH]c(/C=C2\C(=O)Nc3ccc(F)cc32)c1C [Sunitinib Malate (Sutent)]
- inhibition of growth at 5 µM [2, 12]: 7.5%

Compound: CC1(C)CNc2cc(NC(=O)c3cccnc3NCc3ccncc3)ccc21 [Motesanib Diphosphate (AMG-706)]
- pIC50 (c-Kit [5]): 8.10
- pIC50 (PDGFR): 7.08
- inhibition of growth at 5 µM [2, 12]: -36.6%

Compound: COc1ccc(-c2ccc3c(N4CCOC[C@@H]4C)nc(N4CCOC[C@@H]4C)nc3n2)cc1CO [AZD8055]
- pIC50 (mTOR): 9.10
- inhibition of growth at 5 µM [2, 12]: 45.7%

Compound: Cc1ccc(Nc2nccc(N(C)c3ccc4c(C)n(C)nc4c3)n2)cc1S(N)(=O)=O [Pazopanib HCl]
- pIC50 (VEGFR1): 8.00
- pIC50 (PDGFR): 7.08
- inhibition of growth at 5 µM [2, 12]: -2.6%

Compound: CCn1cc(-c2ccnc3[nH]c(-c4cccc(CN(C)C)c4)cc23)c(-c2ccc(NC(=O)N(C)C)cc2)n1 [GSK1070916]
- viability at 72 h (in vitro): 67.7%
- pIC50 (Aurora C [3]): 8.19
- inhibition of growth at 5 µM [2, 13]: 79.9%

Compound: COc1cc2ncnc(Nc3cccc(Br)c3)c2cc1OC [PD153035 HCl]
- inhibition of growth at 5 µM [2, 12]: -9.7%

Compound: CCN(CC)CCCCNc1ncc2cc(-c3cc(OC)cc(OC)c3)c(NC(=O)NC(C)(C)C)nc2n1 [PD173074]
- viability at 72 h (in vitro): 58.8%
- pIC50 (VEGFR2 [7]): 6.70 to 7.00
- inhibition of growth at 5 µM [2, 12]: 76.8%

Compound: N#CC1(c2ccc(NC(=O)c3cccnc3NCc3ccncc3)cc2)CCCC1 [Apatinib (YN968D1)]
- viability at 72 h (in vitro): 63.8%
- pIC50 (VEGFR2 [10]): 9.00
- inhibition of growth at 5 µM [2, 13]: 77.6%

Compound: CN(C)c1ccc(C(=O)NCCCCCCC(=O)NO)cc1 [M344]
- pIC50 (HDAC [6]): 7.00
- inhibition of growth at 5 µM [2, 13]: 44.6%

Compound: Cc1cc(NC(=O)Nc2ccc(N(C)C)cc2)c2cc(F)cc(F)c2n1 [SB-408124, reference compound]
- effect on T. gondii growth in the screen [11]: no effect on T. gondii growth
- pKi (OX1; membrane): 7.57
- pKi (OX1; whole cell): 7.24
- inhibition of growth at 5 µM [2, 12]: -80.4%
